Patent US20210171579A1, “INHIBITOR USING PLANT CYCLOPEPTIDE AS EFFECTIVE COMPONENT FOR LIPID METABOLIC ABNORMALITIES IN CANCER CELLS AND USES THEREOF” (CHINA PHARMACEUTICAL UNIVERSITY, priority 2017, published 2021)

How the values were obtained:
[1] = test system: human liver cancer HepG2 cell line; assay: Indexes related to lipid metabolism in human liver cancer cells (commercial kits); assay type: cell-based; conditions: HepG2, 24 h treatment, FIG. 2
Procedure: (§1) In-vivo antineoplastic activity and activity of inhibiting abnormal lipid metabolism of tumors of the RAs are verified by establishing a nude mouse subcutaneously transplanted tumor model with liver cancer cells.
An overnight human liver cancer HepG2 cell line is cultivated by a 10% FBS medium. Pancreatin is added for digestion to form a cell suspension, which is inoculated onto a 6-well plate according to an appropriate concentration. After 24 h, the RA-V or the RA-XII is added for treatment for 24 h. Digestion is conducted with the pancreatin. Centrifugation is conducted for 5 to 10 min at a room temperature and 2000 rpm, and cells are collected. The cells are resuspended once with pre-cooled 1×PBS (4° C.), centrifuged for 5 to 10 min at 2000 rpm, and washed. By adopting commercial kits, contents of total cholesterol and triglycerides in the cells are detected through a single reagent GPO-PAP method respectively, and contents of low-density lipoproteins and high-density lipoproteins in the cells are detected through a double-reagent direct method (the commercial kits are purchased from the Nanjing Jiancheng Bioengineering Institute, with article numbers of A111-1, A110-1, A113-1 and A112-1 respectively).

[2] = test system: tissues of HepG2 subcutaneously transplanted tumors; assay: Lipid droplets in tissues of subcutaneously transplanted tumors, Oil Red staining; assay type: in vivo, BABL/c nude mice; conditions: tumor tissues from Embodiment 4, Oil Red staining of cryosections, FIG. 6
Procedure: (§2) HepG2 is diluted into […] with a serum-free MEM. 100 μL of cell suspension is taken and inoculated to left armpits of BABL/c nude mice subcutaneously, and grows for 7 days to form a tumor-bearing mouse model. Inoculated and well-grown tumor-bearing mice are grouped at random, and dosed with the RA-XII once through caudal veins every other day. While dosing, sizes of tumors are measured with a vernier caliper (a tumor volume=a long diameter×a short diameter^2/2), and weights of the nude mice are recorded and counted. The used animals are killed after dosed for 21 days, and tumors are peeled and photographed.
Tissues of the tumors obtained in Embodiment 4 are taken and embedded by OCT and then rapidly cooled. Cryostat serial sectioning is conducted with a thickness being 20 μm. Drying is conducted for 30 min at a room temperature. Fixing is conducted with 4% paraformaldehyde for 30 min. Staining is conducted with an Oil Red working solution for about 30 min at the room temperature. Washing is conducted with PBS twice. Sections are sealed with a glycerin jelly. Overnight drying is conducted, and pictures are taken under a microscope.

[3] = test system: human liver cancer HepG2 cell line; assay: Growth inhibition of human liver cancer cells, SRB method; assay type: cell-based; conditions: HepG2, 24 h treatment, FIG. 1
Procedure: as §1
Cell viability is determined by adopting an SRB method. An overnight human liver cancer HepG2 cell line (purchased from the Cell Bank of Committee on Type Culture Collection of Chinese Academy of Sciences) is cultivated by a 10% FBS medium. Pancreatin is added for digestion to form a cell suspension, which is inoculated onto a 96-well plate according to an appropriate concentration at 100 μl/well. Cultivation is conducted in a CO2 incubator for 24 h until cells adhere to walls completely. Different final concentrations of RA-XII are added, after acting for 24 h, 50 μl of a 4° C. pre-cooled TCA solution (30%, w/v) is added into each well for fixing of the cells, and a final concentration of the TCA solution is 10%. The 96-well plate is transferred into a 4° C. refrigerator for fixing for 1 h after still standing for 5 min. The 96-well plate is taken out, washed 5 times with deionized water, and aired at a room temperature. […] Optical densities are determined at 540 nm by adopting a microplate reader.

[4] = test system: tissues of HepG2 subcutaneously transplanted tumors; assay: Indexes related to lipid metabolism in tissues of subcutaneously transplanted tumors; assay type: in vivo, BABL/c nude mice; conditions: tumor tissues from Embodiment 4, RIPA lysate, FIG. 5
Procedure: as §2
Tissues of the tumors obtained in Embodiment 4 are taken and lysed with an RIPA lysate. Then contents of cholesterol, triglycerides, low-density lipoproteins and high-density lipoproteins are detected by adopting commercial kits (specific methods are the same as Embodiment 2).

[5] = test system: HepG2 subcutaneously transplanted tumors; assay: In-vivo antineoplastic test, nude mouse subcutaneously transplanted tumor model; parameters: species or system BABL/c nude mice; conditions: caudal vein dosing every other day, 21 days, FIG. 4
Procedure: as §1, §2

[6] = Weights of nude mice in the in-vivo antineoplastic test; parameters: species or system BABL/c nude mice; conditions: caudal vein dosing every other day, 21 days, FIG. 4
Procedure: as §2

[7] = test system: human liver cancer HepG2 cell line; assay: Lipid droplet formation in human liver cancer cells, Oil Red staining; assay type: cell-based; conditions: HepG2, 24 h treatment, FIG. 3
Procedure: as §1
0.5 g of pre-ground and pre-crushed dried Oil Red powder (purchased from Sigma Company) is weighed, and dissolved in a small amount of isopropanol. Then isopropanol is added to reach 100 ml. A solution is sealed in a brown bottle (or packaged with tin foil paper for avoiding light) for preservation at 4° C. as a storage solution, which may be preserved for a long time. When using, 6 ml of the solution is taken, and 4 ml of tri-distilled water is added to be evenly mixed. The mixed solution is filtered by qualitative filter paper into a working solution, which is used up within a few hours after diluted. An overnight human liver cancer HepG2 cell line is cultivated by a 10% FBS medium. Pancreatin is added for digestion to form a cell suspension, which is inoculated onto a 24-well plate according to an appropriate concentration. After 24 h, the RA-XII is added for treatment for 24 h. A cultivation solution is poured out carefully and slowly. Fixing is then conducted with 4% paraformaldehyde for 30 min. Staining is conducted with an Oil Red working solution for about 30 min at the room temperature. Washing is conducted with PBS twice. Pictures are taken under a microscope.

| SMILES | high-density lipoproteins content in cells [1] | low-density lipoproteins content in cells [1] | total cholesterol content in cells [1] | triglycerides content in cells [1] | number of lipid droplets in tumor tissues [2] | proliferation of tumor cells (cell viability, SRB) [3] | high-density lipoproteins in tumor tissues [4] | low-density lipoproteins in tumor tissues [4] | total cholesterol in tumor tissues [4] | triglycerides in tumor tissues [4] | growth speed of subcutaneously transplanted tumors (tumor volume) [5] | weights of the nude mice [6] | number of lipid droplets in tumor cells [7] |
| --- | --- | --- | --- | --- | --- | --- | --- | --- | --- | --- | --- | --- | --- |
| COc1ccc(C[C@H]2C(=O)N[C@@H](C)C(=O)N(C)C3Cc4ccc(cc4)Oc4cc(ccc4O)C[C@@H](C(=O)N[C@H](C)C(=O)N[C@@H](C)C(=O)N2C)N(C)C3=O)cc1 [RA-V] | no obvious influence | obviously inhibit expression | obviously inhibit expression | obviously inhibit expression | – | – | – | – | – | – | – | – | – |
| COc1ccc(C[C@H]2C(=O)N[C@@H](C)C(=O)N(C)C3Cc4ccc(cc4)Oc4cc(ccc4O[C@@H]4OC(CO)[C@@H](O)[C@H](O)C4O)C[C@@H](C(=O)N[C@H](C)C(=O)N[C@@H](C)C(=O)N2C)N(C)C3=O)cc1 (some centres unmarked) [RA-XII] | no obvious influence | obviously inhibit expression | obviously inhibit expression | obviously inhibit expression | obviously reduce the number of the lipid droplets | inhibits rapid proliferation of tumor cells | no obvious influence | obviously inhibit expression | obviously inhibit expression | obviously inhibit expression | obviously reduce a growth speed | no obvious influence | obviously reduce the number of the lipid droplets |
